In publication PMC8869655, “Identification of the Kinase-Substrate Recognition Interface between MYPT1 and Rho-Kinase” (Biomolecules, 2022):
Blank lines part the entries; values can stand above or below the molecule they belong to. Residues, ends and D or L forms follow the SMILES beside them. No end group written: not given here.

Legend:
[1] = molecular target: T1, GST-Rho-kinase-cat-L (bovine, residues 6–553) (Bos taurus, UniProt Q28021); assay: In vitro kinase assay, Rho-kinase-cat-L activity; assay type: biochemical; settings: synthetic peptide at the indicated concentrations, Figure S4, N=3
T1 construct: GST-Rho-kinase-cat-L (bovine, residues 6–553); made in house; host or cells: Sf9 cells (baculovirus)

[2] = molecular target: T1, GST-Rho-kinase-cat-L (bovine, residues 6–553); assay: In vitro kinase assay, Rho-kinase-cat-L activity; assay type: biochemical; settings: for IC50 / Inhibition of Rho-kinase-cat-L activity (in words): S6 rsk substrate peptide as substrate, 50 μM γ-[32P]ATP, 30 °C, scintillation counting, N = 3; for IC50: 10–20 min, cation-exchange membrane; for Inhibition of Rho-kinase-cat-L activity (in words): inhibitor at the indicated concentrations
Experimental: The kinase reactions were performed in 50 μL of a reaction mixture (25 mM Tris-HCl, pH 7.5, 1 mM EDTA, 1 mM EGTA, 1 mM DTT, 5 mM MgCl2, and 50 μM γ-[^32P]ATP [1–20 GBq/mmol]), GST-Rho-kinase-cat-L or other kinases (1–10 nM), and substrates for 10–20 min at 30 °C. The reaction mixtures were applied to cation-exchange membranes and washed with 75 mM phosphoric acid three times, which was followed by scintillation counting.
Figure 4 Direct inhibition of Rho-kinase activity in vitro. (A) In vitro phosphorylation of S6 rsk substrate peptide by Rho-kinase. GST-Rho-kinase-cat-L or GST-ROCK1-cat-L activity was examined using the S6 rsk substrate peptide as a substrate in the presence of γ-[^32P]ATP. GST-MYPT1-684–868 aa-WT or -4A was added at the indicated concentrations. The reaction mixtures were applied onto cation-exchange membranes, followed by scintillation counting. N = 3. (B) Effects of the deletion of DMs on the inhibition of Rho-kinase activity in vitro. GST-Rho-kinase-cat-L activity was examined using the S6 rsk substrate peptide as a substrate in the presence of γ-[^32P]ATP. GST-MYPT1-684–868-4A with or without DMs was added at the indicated concentrations. The reaction mixtures were applied onto cation-exchange membranes, followed by scintillation counting. N = 3. The deletion of DM1 or DM2 moderately weakened the inhibitory effect and the deletion of both DM1 and DM2 completely abrogated the inhibitory effects of the MYPT1 fragment on the Rho-kinase activity. (C) Sequences of the DMs and phosphorylation sites of MYPT1. The sequences of MYPT1 683–715 aa and 836-860 aa and synthetic peptides are shown. Basic (blue), acidic (red), and aliphatic (green) amino acids within DMs are indicated. Phosphorylation sites are replaced by Ala in pseudosubstrate (PS) peptides. (D) Inhibition of Rho-kinase activity by PS2 + DM2 synthetic peptide. GST-Rho-kinase-cat-L activity was examined using the S6 rsk substrate peptide as a substrate in the presence of γ-[^32P]ATP. Synthetic peptides were added at the indicated concentrations. The reaction mixtures were applied onto cation-exchange membranes, followed by scintillation counting. N = 3. (E) Inhibition of Rho-kinase activity by PS1 + DM3 synthetic peptide. GST-Rho-kinase-cat-L activity was examined using the S6 rsk substrate peptide as a substrate in the presence of γ-[^32P]ATP. Synthetic peptides were added at the indicated concentrations. The reaction mixtures were applied onto cation-exchange membranes, followed by scintillation counting. N = 3.

[3] = molecular target: GFP-Rho-kinase-cat-L (6–553 aa, long form of catalytic fragment) (bovine)
[4] = test system: phosphorylation of GFP-MYPT1 at Thr855 in COS7 cells; assay: Phosphorylation of GFP-MYPT1 in COS7 cells; assay type: cell-based; settings: GST-MYPT1 fragment coexpressed with full-length GFP-MYPT1 in COS7 cells, 24 h, immunoblot anti-MYPT1-pT855 normalized by GFP-MYPT1
Experimental: COS7 cells were seeded on a 6-well dish at a density of 1.8 × 10^5 cells/well in DMEM with 10% fetal bovine serum and cultured overnight. The cells were transfected with plasmids using LIPOFECTAMINE 2000^TM reagent, according to the manufacture’s protocol. After 24 h, the cells were washed twice with PBS, lysed in SDS–PAGE sample buffer and, subjected to immunoblot analysis using the indicated antibodies. The signals were visualized using HRP-conjugated secondary antibody and ECL prime detecting reagent (Cytiva, Marlborough, MA, USA) by X-lay film or imaging analyzer LAS 4010 (Cytiva, Marlborough, MA, USA). Signal intensities of phospho-GFP-MYPT1 and GFP-MYPT1 were analyzed using Fiji software and quantified from standard curves. The phospho-GFP-MYPT1 levels were normalized by GFP-MYPT1 levels.
Figure 3 Inhibition of MYPT1 phosphorylation by the Rho-kinase-binding fragment of MYPT1. […] The cell lysates were analyzed by immunoblot analysis using anti-MYPT1-pT855 (top panel), anti-GFP (middle), or anti-GST (bottom) antibodies. The phospho-GFP-MYPT1 levels were quantified and normalized by GFP-MYPT1 levels. […] The percentages of cells with stress fibers throughout the cell (SF(++)), cells with stress fibers partly in the cell (SF(+)), and cells without stress fibers (SF(–)) were analyzed. […]

NIH3T3 cells = assay: Actin stress fiber formation in NIH3T3 cells; assay type: cell-based; settings: GST-MYPT1 fragment expressed in NIH3T3 cells, 24 h, phalloidin staining, N = 4
Experimental: NIH3T3 cells were seeded on polylysine-coated 13-mm coverslips at a density of 4 × 10^4 cells/well in a 6-well dish and cultured in DMEM with 10% calf serum overnight. The cells were transfected with plasmid using LIPOFECTAMINE LTX reagent (Thermo Fisher Scientific, Waltham, MA, USA), according to the manufacture’s protocol. After 24 h, the cells were incubated in fresh DMEM containing 10% calf serum for 20 min, fixed with 3.7% formaldehyde in PBS for 10 min and then treated with PBS containing 0.2% Triton X-100 for 10 min. The fixed cells were blocked with 1% bovine serum albumin for 30 min and stained with the indicated antibodies. Cover slips were mounted with Fluoromount (Diagnostic Biosystems, Pleasanton, CA, USA) and the fluorescence was examined using a confocal laser scanning microscope LSM 780 and LSM5 PASCAL built around an Axio Observer Z1 or Axiovert 200M under the control of LSM software (Carl Zeiss, Oberkochen, Germany). Images were processed using ImageJ or Photoshop (Adobe, San Jose, CA, USA).
Figure 3 Inhibition of MYPT1 phosphorylation by the Rho-kinase-binding fragment of MYPT1. (A,B) Effect of the overexpression of Rho-kinase-binding MYPT1 fragments on GFP-MYPT1 phosphorylation in COS7 cells. Full-length GFP-MYPT1 and the GST-MYPT1 Rho-kinase binding fragment were transiently expressed in COS7 cells. The cell lysates were analyzed by immunoblot analysis using anti-MYPT1-pT855 (top panel), anti-GFP (middle), or anti-GST (bottom) antibodies. The phospho-GFP-MYPT1 levels were quantified and normalized by GFP-MYPT1 levels. Data represent means ± SD. **, p < 0.01, ***, p < 0.001 as compared with the control. (C) Effect of the overexpression of Rho-kinase-binding MYPT1 fragments on stress fiber formation in NIH3T3 cells. GST-MYPT1 fragments were expressed in NIH3T3 cells. The cells were fixed in formaldehyde, and immunostained with phalloidin and anti-GST antibody. […] The percentages of cells with stress fibers throughout the cell (SF(++)), cells with stress fibers partly in the cell (SF(+)), and cells without stress fibers (SF(–)) were analyzed. […]

T1 sequence (Q28021 6-553): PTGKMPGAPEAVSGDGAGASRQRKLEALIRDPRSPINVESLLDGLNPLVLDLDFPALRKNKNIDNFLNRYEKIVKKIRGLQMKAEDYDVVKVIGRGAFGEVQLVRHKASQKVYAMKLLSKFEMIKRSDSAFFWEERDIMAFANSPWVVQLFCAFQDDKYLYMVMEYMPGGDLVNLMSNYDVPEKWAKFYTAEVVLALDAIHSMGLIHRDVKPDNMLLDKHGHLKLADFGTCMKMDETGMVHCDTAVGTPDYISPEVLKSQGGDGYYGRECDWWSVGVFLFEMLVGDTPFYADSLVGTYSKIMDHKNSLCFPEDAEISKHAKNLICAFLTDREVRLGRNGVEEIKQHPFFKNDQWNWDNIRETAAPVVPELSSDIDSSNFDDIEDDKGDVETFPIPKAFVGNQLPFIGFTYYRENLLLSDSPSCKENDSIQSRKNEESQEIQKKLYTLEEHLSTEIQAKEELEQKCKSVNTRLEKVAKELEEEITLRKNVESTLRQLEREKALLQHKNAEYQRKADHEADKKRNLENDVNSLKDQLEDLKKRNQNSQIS

Molecule: CC[C@H](C)[C@H](NC(=O)[C@H](CO)NC(=O)[C@H](CCCCN)NC(=O)[C@@H]1CCCN1C(=O)[C@H](CCC(N)=O)NC(=O)[C@H](CO)NC(=O)[C@@H](N)CCCCN)C(=O)N[C@@H](CCCNC(=N)N)C(=O)N[C@@H](CCC(=O)O)C(=O)N[C@@H](CCCNC(=N)N)C(=O)N[C@@H](CCCNC(=N)N)C(=O)N[C@@H](CCCNC(=N)N)C(=O)N1CCC[C@H]1C(=O)N[C@@H](CCCNC(=N)N)C(=O)N[C@@H](CCC(=O)O)C(=O)N[C@@H](CCCCN)C(=O)N[C@@H](CCCNC(=N)N)C(=O)N[C@@H](CCCNC(=N)N)C(=O)N[C@@H](C)C(=O)N[C@@H](C)C(=O)NCC(=O)N[C@H](C(=O)N[C@@H](CO)C(=O)N[C@@H](Cc1ccccc1)C(=O)N[C@@H](Cc1c[nH]c2ccccc12)C(=O)O)C(C)C [PS2 + DM2] (H-KSQPKSIRERRRPREKRRAAGVSFW-OH; N-terminus and C-terminus assumed)
Inhibition of phosphorylation of MLC by Rho-kinase ([1]; substrate GST-MLC (1 µM)): inhibited | Inhibition of phosphorylation of MYPT1 by Rho-kinase ([1]; substrate GST-MYPT1-684-868 aa (0.5 µM)): inhibited | Inhibition of phosphorylation of Scrib by Rho-kinase ([1]; substrate GST-Scrib-C (1235-1630 aa) (1 µM)): inhibited | IC50 [2]: < 1 µM | Inhibition of Rho-kinase-cat-L activity (in words) [2]: strongly inhibited

Molecule: QSRRAAQGVTLTDLQEAEKTIGRS [PS1 + DM1, synthetic peptide, MYPT1 692–715 aa, pseudosubstrate 1 plus docking motif 1]
Inhibition of Rho-kinase activity at higher concentration (in words) ([2]; 100 μM peptide, data not shown): mild inhibitory effect | Inhibition of Rho-kinase-cat-L activity (in words) [2]: did not show an inhibitory effect

B1: MYPT1-655-715 aa: GST-fused MYPT1 fragment 655–715 aa (protein, UniProt Q10728 655-715, looked up, fragment)
chain: GTLSSTSEVRERRRSYLTPVRDEESESQRKARSRQARQSRRSTQGVTLTDLQEAEKTIGRS
modifications: also: GST fusion
notes: GST-fused MYPT1 fragment 655–715 aa
Effect on phosphorylation of GFP-MYPT1 at Thr855 [4]: decreased the phosphorylation of MYPT1 | Effect on actin stress fiber formation (NIH3T3 cells): rather enhanced stress fiber formation

B2: MYPT1-684–868 aa: GST-fused rat MYPT1 fragment 684–868 aa containing DMs and four phosphorylation sites (protein)
chain: KARSRQARQSRRSTQGVTLTDLQEAEKTIGRSRSTRTREQENEEKDKEEKEKQDKEKQEEKKESEVSREDEYKQKYSRTYDETYARYRPVSTSSSSTPSSSSLSTLGSSLYASSQLNRPNSLVGITSAYSRGLTKDNEREGEKKEEEKEGEDKSQPKSIRERRRPREKRRSTGVSFWTQDSDENE
modifications: left off: GST, end not stated, kept
notes: GST-fused rat MYPT1 fragment 684–868 aa containing DMs and four phosphorylation sites
Effect on phosphorylation of GFP-MYPT1 at Thr855 [4]: strongly inhibited | Effect on actin stress fiber formation (NIH3T3 cells): reduced actin stress fibers | Inhibition of Rho-kinase-cat-L activity (in words) [2]: inhibited the Rho-kinase-cat-L activity in a dose-dependent manner

More lines, main results first:

Inhibition of Rho-kinase-cat-L activity (in words) [2]: moderately inhibited
Molecule: KSQPKSIRERRRPR [DM2, synthetic peptide, MYPT1 836–849 aa, docking motif 2]

IC50 [2]: < 1 µM
Molecule: CC(C)C[C@H](NC(=O)[C@@H](NC(=O)[C@@H](NC(=O)CNC(=O)[C@H](CCC(N)=O)NC(=O)[C@H](C)NC(=O)[C@H](C)NC(=O)[C@H](CCCNC(=N)N)NC(=O)[C@H](CCCNC(=N)N)NC(=O)[C@H](CO)NC(=O)[C@H](CCC(N)=O)NC(=O)[C@H](CCCNC(=N)N)NC(=O)[C@H](C)NC(=O)[C@H](CCC(N)=O)NC(=O)[C@H](CCCNC(=N)N)NC(=O)[C@H](CO)NC(=O)[C@H](CCCNC(=N)N)NC(=O)[C@H](C)NC(=O)[C@H](CCCCN)NC(=O)[C@@H](N)CCCNC(=N)N)C(C)C)[C@@H](C)O)C(=O)N[C@H](C(=O)O)[C@@H](C)O [PS1 + DM3] (H-RKARSRQARQSRRAAQGVTLT-OH; N-terminus and C-terminus assumed)
Inhibition of Rho-kinase-cat-L activity (in words) [2]: inhibited Rho-kinase activity to a similar extent as PS2 + DM2

IC50 of inhibition of the in vitro kinase activity of GST-Rho-kinase-cat-L on the S6 rsk substrate peptide (Figure 4E) [3]: < 1 µM
Molecule: RKARSRQARQSRRAAQGVTLT (not fully specified) [PS1 + DM3 synthetic peptide (MYPT1 683–703 aa)]

IC50 of inhibition of the in vitro kinase activity of GST-Rho-kinase-cat-L on the S6 rsk substrate peptide (Figure 4D) [3]: < 1 µM
Molecule: KSQPKSIRERRRPREKRRAAGVSFW (not fully specified) [PS2 + DM2 synthetic peptide (MYPT1 836–860 aa)]
